Here are results for 26 molecules from patent publication US8481586B2, “Pyrrolo[2,3-a] carbazoles and use thereof as PIM kinase inhibitors” (Centre National de la Recherche Scientifique, priority 2008, dated 2013).

What all share (type): biochemical
The target of one test is PIM-1 (Homo sapiens (Human), UniProt P11309). Put plainly: inhibition test on kinase PIM-1 (residual activity, IC50). Particulars: for remaining activity at 10 µM: read-out: Percentage of residual activity PIM-1. From the text: (§1) MKK1, ERK 1, ERK 2, JNK1, JNK2, JNK3, p38a MAPK, p38b MAPK, p38g MAPK, p38s MAPK, ERK8, RSK1, RSK2, PDK1, PKBa, PKBb, SGK1, S6K1, PKA, ROCK2, PRK2, PKCa, PKC zeta, PKD1, MSK1, MNK1, MNK2, MAPKAP-K2, MAPKAP-K3, PRAK, CAMKKa, CAMKKb, CAMK1, SmMLCK, PHK, CHK1, CHK2, GSK3b, CDK2/cyclin A, PLK1, PLK1 (Okadaic acid), Aurora B, Aurora C, AMPK, MARK3, BRSK2, MELK, CK1, CK2, NEK2a, NEK6, NEK7, IKKb, PIM-1, PIM-2, PIM-3, SRPK1, MST2, EF2K, HIPK2, HIPK3, PAK-4, PAK5, PAK6, Src, Lck, CSK.
PIM-1, sequence (P11309 whole entry, species assumed): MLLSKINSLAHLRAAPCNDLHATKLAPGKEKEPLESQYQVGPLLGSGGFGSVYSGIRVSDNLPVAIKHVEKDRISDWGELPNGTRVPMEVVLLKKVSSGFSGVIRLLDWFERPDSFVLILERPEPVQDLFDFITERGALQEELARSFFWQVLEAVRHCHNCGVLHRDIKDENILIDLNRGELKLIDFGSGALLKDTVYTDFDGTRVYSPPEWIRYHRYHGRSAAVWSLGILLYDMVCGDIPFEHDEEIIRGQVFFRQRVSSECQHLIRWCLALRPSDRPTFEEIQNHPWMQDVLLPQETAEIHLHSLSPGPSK
(§2) The results in terms of residual activity of the kinases after being placed in contact with the compounds of Examples 2, 3 and 5, at a concentration of 10 μM (10 μmol/L), are shown in Table 1 below.
(§3) The higher the residual activity of the kinase tested, the lower the inhibitory activity of the test compounds on the tested kinase.
(§4) The compounds according to the invention were then tested on the kinases PIM-1, PIM-2 and PIM-3.
(§5) The results in terms of percentage of residual activity after placing the compounds according to the invention in contact with each of the kinases PIM-1, PIM-2 and PIM-3 are given in Table 2 below.
(§6) The higher the residual activity, the lower the inhibitory activity of the test compounds.
(§7) The mean inhibitory concentrations (IC50) of certain preferred compounds of the invention were determined in the following manner: the IC50 values were measured after performing the inhibition tests on the kinases PIM-1, PIM-2 and PIM-3 at ten different concentrations for each test compound, and the IC50 value was determined from the dose-inhibition curves obtained.

The target in a further test is PIM-3 (Homo sapiens (Human), UniProt Q86V86). Nature of the test: inhibition test on kinase PIM-3 (residual activity, IC50). The conditions noted are these: for remaining activity at 10 µM: product at 10 μmol/L, Table 2, N.I. = not inhibitory, read-out: Percentage of residual activity PIM-3; for IC50: ten concentrations, dose-inhibition curve.
Description: as §1, §2, §3, §4, §5, §6, §7

For a further test, the target named is PIM-2 (Homo sapiens (Human), UniProt Q9P1W9). Nature of the test: inhibition test on kinase PIM-2 (residual activity, IC50). Particulars: product at 10 μmol/L, Table 2, N.I. = not inhibitory; for remaining activity at 10 µM: read-out: Percentage of residual activity PIM-2.
PIM-2, sequence (Q9P1W9 whole entry, species assumed): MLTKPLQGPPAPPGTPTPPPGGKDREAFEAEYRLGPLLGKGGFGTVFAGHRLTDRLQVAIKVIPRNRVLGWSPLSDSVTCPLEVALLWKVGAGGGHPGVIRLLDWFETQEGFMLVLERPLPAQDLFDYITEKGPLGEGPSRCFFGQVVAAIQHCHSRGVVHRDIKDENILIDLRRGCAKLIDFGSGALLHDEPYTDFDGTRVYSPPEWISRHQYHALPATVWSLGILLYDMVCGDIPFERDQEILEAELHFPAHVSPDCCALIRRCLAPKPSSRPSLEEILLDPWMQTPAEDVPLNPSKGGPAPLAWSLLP
Description: as §1, §2, §3, §4, §5, §6, §7

Setting [1] is: product at 10 μmol/L, Table 2, N.I. = not inhibitory.

For the molecule `O=Cc1c[nH]c2c1ccc1c3cc([N+](=O)[O-])ccc3[nH]c12` [Example 50, 7-nitro-1,10-dihydropyrrolo[2,3-a]carbazole-3-carbaldehyde], at PIM-1 (setting [1]), the “Percentage of residual activity PIM-1” value is on record as “N.I”. Moreover, the remaining activity at 10 µM on PIM-3 is 35%. Moreover, on PIM-2, the “Percentage of residual activity PIM-2” value is reported as “N.I”.

Usually IC50 stands for the concentration needed to halve the response being measured. Lower therefore signals greater potency in that assay. For the molecule `O=C(c1c[nH]c2c1ccc1c3ccccc3[nH]c12)C(F)(F)F` [Example 6, 1-(1,10-dihydropyrrolo[2,3-a]carbazol-3-yl)-2,2,2-trifluoroethanone], the remaining activity at 10 µM on PIM-1 (setting [1]) came out at 20%; at PIM-3, 7%; at PIM-2, 30%. The same molecule had a 50% inhibitory concentration (IC50) on PIM-3 of 170 nM.

In the case of `O=[N+]([O-])c1ccc2[nH]c3c(ccc4cc[nH]c43)c2c1` [Example 32, 7-nitro-1,10-dihydropyrrolo[2,3-a]carbazole], the remaining activity at 10 µM at PIM-1 (setting [1]) worked out at 9%; on PIM-3, 11%; at PIM-2 it was 23%.

As for `OCCc1c[nH]c2c1ccc1c3ccccc3[nH]c12` [Example 9, 2-(1,10-dihydropyrrolo[2,3-a]carbazol-3-yl)ethanol], the remaining activity at 10 µM at PIM-1 (setting [1]) was found to be 35%; on PIM-3 it was 21%; on PIM-2, 50%.

On to `O=Cc1c[nH]c2c1ccc1c3cc(-c4ccc(F)cc4F)ccc3[nH]c12` [Example 40, 7-(2,4-difluorophenyl)-1,10-dihydropyrrolo[2,3-a]-carbazole-3-carbaldehyde], for which the values for the remaining activity at 10 µM at PIM-1 (setting [1]), on PIM-3 and at PIM-2 were 6%, 6% and 32%, respectively. The half-maximal inhibitory concentration (IC50) against PIM-1 (ten concentrations, dose-inhibition curve) turned out to be 660 nM; against PIM-3, 200 nM.

Take `O=Cc1c[nH]c2c1ccc1c3cc(-c4ccc(-c5ccccc5)cc4)ccc3[nH]c12` [Example 37, 7-(4-biphenyl)-1,10-dihydropyrrolo[2,3-a]carbazole-3-carbaldehyde]: the remaining activity at 10 µM on PIM-1 (setting [1]) stood at 39%; at PIM-3, 48%; at PIM-2, 70%.

Take `O=Cc1c[nH]c2c1ccc1c3cc(-c4ccc(C(F)(F)F)cc4)ccc3[nH]c12` [Example 41, 7-(4-trifluoromethylphenyl)-1,10-dihydropyrrolo-[2,3-a]carbazole-3-carbaldehyde]: the results for the remaining activity at 10 µM at PIM-1 (setting [1]), on PIM-3 and on PIM-2 were 28%, 23% and 52%, respectively.

With `O=Cc1c[nH]c2c1ccc1c3cccc(F)c3[nH]c12` [Example 47, 9-Fluoro-1,10-dihydropyrrolo[2,3-a]carbazole-3-carbaldehyde], the remaining activity at 10 µM at PIM-1 (setting [1]) is 5%; at PIM-3, 3%; at PIM-2 it was 11%.

For `O=Cc1c[nH]c2c1ccc1c3cc(F)ccc3[nH]c12` [Example 46, 7-Fluoro-1,10-dihydropyrrolo[2,3-a]carbazole-3-carbaldehyde], the remaining activity at 10 µM on PIM-1 (setting [1]) came to 4%; on PIM-3, 5%; at PIM-2, 21%.

As for `CCN(CC)CCc1c[nH]c2c1ccc1c3ccccc3[nH]c12` [Example 11, 2-(1,10-dihydropyrrolo[2,3-a]carbazol-3-yl)-N,N-diethylethanamine], the remaining activity at 10 µM at PIM-1 (setting [1]) amounted to 39%; on PIM-3, 25%; on PIM-2, 78%.

`CCN(CC)C(=O)/C(=N\O)c1c[nH]c2c1ccc1c3ccccc3[nH]c12` [Example 13, 2-(1,10-dihydropyrrolo[2,3-a]carbazol-3-yl)-N,N-diethyl-2-hydroxyiminoethanamide]: the remaining activity at 10 µM was 41% at PIM-1 (setting [1]), 21% on PIM-3 and 27% at PIM-2.

Regarding `CCc1cccc2c1[nH]c1c2ccc2c(C=O)c[nH]c21` [Example 51, 9-ethyl-1,10-dihydropyrrolo[2,3-a]carbazole-3-carbaldehyde], the remaining activity at 10 µM worked out at 1% on PIM-1 (setting [1]), 10% at PIM-3 and 14% on PIM-2.

With `O=Cc1c[nH]c2c1ccc1c3cc(-c4ccc(OC(F)(F)F)cc4)ccc3[nH]c12` [Example 42, 7-(4-trifluoromethoxyphenyl)-1,10-dihydropyrrolo[2,3-a]carbazole-3-carbaldehyde], the results for the remaining activity at 10 µM at PIM-1 (setting [1]), on PIM-3 and on PIM-2 were 29%, 31% and 70%, respectively.

As for `O=S(=O)(c1ccccc1)n1ccc2ccc3c4cc(Br)ccc4[nH]c3c21` [Example 14, 1-benzenesulfonyl-7-bromo-1,10-dihydropyrrolo-[2,3-a]carbazole], the remaining activity at 10 µM at PIM-1 (setting [1]) was found to be 51%; on PIM-3 it was 61%; on PIM-2 it was 52%.

In the case of `O=Cc1c[nH]c2c1ccc1c2[nH]c2cccc(Br)c21` [Example 44, 6-bromo-1,10-dihydropyrrolo[2,3-a]carbazole-3-carbaldehyde], the remaining activity at 10 µM was determined as 2% at PIM-1 (setting [1]), 5% at PIM-3 and 6% at PIM-2.

`CCN(CC)C(=O)C(=O)c1c[nH]c2c1ccc1c3ccccc3[nH]c12` [Example 10, 2-(1,10-dihydropyrrolo[2,3-a]carbazol-3-yl)-N,N-diethyl-2-oxoacetamide]: the remaining activity at 10 µM on PIM-1 (setting [1]) turned out to be 54%; on PIM-3 it was 39%; at PIM-2, 51%.

Consider `N#Cc1ccc2[nH]c3c(ccc4cc[nH]c43)c2c1` [Example 31, 1,10-dihydropyrrolo[2,3-a]carbazole-7-carbonitrile], for which the remaining activity at 10 µM at PIM-1 (setting [1]) was determined as 9%; on PIM-3, 4%; at PIM-2, 26%.

Regarding `Fc1ccc2[nH]c3c(ccc4cc[nH]c43)c2c1` [Example 28, 7-fluoro-1,10-dihydropyrrolo[2,3-a]carbazole], the figures for the remaining activity at 10 µM at PIM-1 (setting [1]), at PIM-3 and at PIM-2 were 35%, 20% and 84%, respectively.

With `Brc1cccc2[nH]c3c(ccc4cc[nH]c43)c12` [Example 26, 6-bromo-1,10-dihydropyrrolo[2,3-a]carbazole], the remaining activity at 10 µM was 8% at PIM-1 (setting [1]), 11% on PIM-3 and 37% at PIM-2.

As for `CCN(CC)CC(O)c1c[nH]c2c1ccc1c3ccccc3[nH]c12` (stereo not drawn) [Example 12, 1-(1,10-dihydropyrrolo[2,3-a]carbazol-3-yl)-2-diethylaminoethanol], the remaining activity at 10 µM worked out at 24% at PIM-1 (setting [1]), 16% on PIM-3 and 53% at PIM-2.

Regarding `COc1cccc(-c2ccc3[nH]c4c(ccc5cc[nH]c54)c3c2)c1` [Example 18, 7-(3-methoxyphenyl)-1,10-dihydropyrrolo[2,3-a]-carbazole], the remaining activity at 10 µM at PIM-1 (setting [1]) worked out at 46%; on PIM-3, 39%; at PIM-2, 51%.

For the molecule `O=Cc1c[nH]c2c1ccc1c3cc(-c4ccc(F)cc4)ccc3[nH]c12` [Example 39, 7-(4-fluorophenyl)-1,10-dihydropyrrolo[2,3-a]carbazole-3-carbaldehyde], the remaining activity at 10 µM came to 15% at PIM-1 (setting [1]), 15% on PIM-3 and 55% at PIM-2.

Take `Brc1ccc2c(c1)[nH]c1c2ccc2cc[nH]c21` [Example 25, 8-bromo-1,10-dihydropyrrolo[2,3-a]carbazole]: the values for the remaining activity at 10 µM at PIM-1 (setting [1]), on PIM-3 and on PIM-2 were 74%, 15% and 93%, respectively.

For the molecule `Cc1ccc2c(c1)[nH]c1c2ccc2cc[nH]c21` [Example 35, 8-methyl-1:10-dihydropyrrolo[2,3-a]carbazole], the remaining activity at 10 µM stood at 81% at PIM-1 (setting [1]) and 13% at PIM-3. Besides, at PIM-2, the “Percentage of residual activity PIM-2” value is given as “N.I”.

In the case of `Cc1ccc2c(c1)[nH]c1c2ccc2c(C=O)c[nH]c21` [Example 52, 8-methyl-1,10-dihydropyrrolo[2,3-a]carbazole-3-carbaldehyde], the figures for the remaining activity at 10 µM at PIM-1 (setting [1]), on PIM-3 and at PIM-2 were 15%, 8% and 39%, respectively.

With `O=Cc1c[nH]c2c1ccc1c2[nH]c2cc(Cl)cc(Cl)c21` [Example 48, 6,8-dichloro-1,10-dihydropyrrolo[2,3-a]carbazole-3-carbaldehyde], the remaining activity at 10 µM at PIM-1 (setting [1]) came out at 8%; on PIM-3 it was 6%; at PIM-2, 34%.
